Data reported in US11590116B2 (THERAVANCE BIOPHARMA R&D IP, LLC, priority 2019, dated 2023).

What was measured:
[1] = biological target: T1, recombinant human ALK5 (TGF-βR1) protein (Homo sapiens, UniProt P36897); test: Biochemical ALK5 (TGF-βR1) assay to measure pKi (LANCE Ultra ULight kinase assay); settings: apparent pKi from pIC50 by Cheng-Prusoff, read-out: ALK5 pKi (converted)
T1 construct: purchased Life Technologies PR9075A
T1 sequence (P36897 34-503): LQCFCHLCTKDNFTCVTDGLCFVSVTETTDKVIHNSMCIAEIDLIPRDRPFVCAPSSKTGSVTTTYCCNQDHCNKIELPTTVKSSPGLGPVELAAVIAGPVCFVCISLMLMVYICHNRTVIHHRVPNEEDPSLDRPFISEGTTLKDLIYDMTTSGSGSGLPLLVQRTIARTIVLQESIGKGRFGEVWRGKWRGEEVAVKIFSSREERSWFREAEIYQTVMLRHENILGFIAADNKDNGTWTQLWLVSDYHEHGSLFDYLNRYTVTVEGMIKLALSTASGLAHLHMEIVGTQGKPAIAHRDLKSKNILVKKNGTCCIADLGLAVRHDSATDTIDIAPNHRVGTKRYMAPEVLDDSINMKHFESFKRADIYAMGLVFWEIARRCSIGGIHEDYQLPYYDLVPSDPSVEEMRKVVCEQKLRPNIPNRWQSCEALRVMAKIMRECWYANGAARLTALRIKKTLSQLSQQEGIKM
In short: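 Compounds (10 μM to 25 pM) were preincubated 60 min at room temperature with enzyme, then reactions were started with ATP (125 μM stock, 5× final) and run 60 min at 37 °C. EDTA-containing Eu-anti-phospho-Topo IIα (Thr1342) antibody stopped the reaction; TR-FRET read at 665 nm. pIC50 from 4-parameter fit, converted to pKi via Cheng-Prusoff.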

[2] = tested on: TGF-β-stimulated SMAD3 phosphorylation in BEAS-2B cells; test: Cellular ALK5 potency assay, inhibition of TGF-β stimulated pSMAD3 formation in BEAS-2B cells; assay type: cell-based; settings: Homo sapiens; inhibition of TGF-β stimulated pSMAD3 formation, BEAS-2B cells; read-out: BEAS2B pIC50 (converted)
In short: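 Cells seeded overnight; rinse with supplemented HBSS; compound 1 h at 37 °C; TGF-β 10 ng/mL final, 30 min; lyse; AlphaLISA acceptor and detector beads 2 h apart, read next day. Potency expressed as pIC50.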

| Ki [1] | SMILES | IC50 [2] |
| --- | --- | --- |
| 0.0398 to 0.316 nM | Cc1cccc(-c2[nH]cnc2-c2ccc3ncc(-c4ccc(C(=O)OCCN5CCC[C@H](N)C5)cn4)cc3c2)n1 [Compound 1214, 2-[(3S)-3-amino-1-piperidyl]ethyl 6-[6-[5-(6-methyl-2-pyridyl)-1H-imidazol-4-yl]-3-quinolyl]pyridine-3-carboxylate] | 25.1 to 158 nM |
| 0.398 to 3.16 nM | Cc1cccc(-c2[nH]cnc2-c2ccc3ncc(-c4csc(C(=O)OCCN5CCC[C@H](N)C5)c4)cc3c2)n1 [Compound 1250, 2-[(3S)-3-amino-1-piperidyl]ethyl 4-[6-[5-(6-methyl-2-pyridyl)-1H-imidazol-4-yl]-3-quinolyl]thiophene-2-carboxylate] | 25.1 to 158 nM |
| 0.0398 to 0.316 nM | Cc1cccc(-c2n[nH]cc2-c2ccc3ncc(-c4ccc(C5CCCN(C(C)C)C5)cc4)cc3n2)n1 (stereo not drawn) [Compound 265, 7-[4-(1-isopropyl-3-piperidyl)phenyl]-2-[3-(6-methyl-2-pyridyl)-1H-pyrazol-4-yl]-1,5-naphthyridine] | 200 to 1260 nM |
| 0.0398 to 0.316 nM | Cc1cccc(-c2n[nH]cc2-c2ccc3ncc(-c4nc(CCN)c(C)[nH]4)cc3n2)n1 [Compound 671, 2-[5-methyl-2-[6-[3-(6-methyl-2-pyridyl)-1H-pyrazol-4-yl]-1,5-naphthyridin-3-yl]-1H-imidazol-4-yl]ethanamine] | 200 to 1260 nM |
| 0.0398 to 0.316 nM | Cc1cccc(-c2n[nH]cc2-c2ccc3ncc(NCC(C)(C)N4CCN(C(C)C)CC4)cc3n2)n1 [Compound 698, N-[2-(4-isopropylpiperazin-1-yl)-2-methyl-propyl]-6-[3-(6-methyl-2-pyridyl)-1H-pyrazol-4-yl]-1,5-naphthyridin-3-amine] | 25.1 to 158 nM |
| 0.0398 to 0.316 nM | Cc1cccc(-c2[nH]cnc2-c2ccc3ncc(-c4cc(C(=O)OCCN5CCNCC5)cs4)cc3c2)n1 [Compound 1141, 2-piperazin-1-ylethyl 5-[6-[5-(6-methyl-2-pyridyl)-1H-imidazol-4-yl]-3-quinolyl]thiophene-3-carboxylate] | 25.1 to 158 nM |
| 0.0398 to 0.316 nM | Cc1cccc(-c2[nH]cnc2-c2ccc3ncc(-c4ncc(C(=O)O[C@@H]5CCNC5)s4)cc3c2)n1 [Compound 1166, [(3R)-pyrrolidin-3-yl] 2-[6-[5-(6-methyl-2-pyridyl)-1H-imidazol-4-yl]-3-quinolyl]thiazole-5-carboxylate] | 25.1 to 158 nM |
| 0.0398 to 0.316 nM | Cc1cccc(-c2n[nH]cc2-c2ccc3ncc(Nc4ccc(N5CCN(C)CC5)cc4)cc3c2)n1 [Compound 664, N-(4-(4-methylpiperazin-1-yl)phenyl)-6-(3-(6-methylpyridin-2-yl)-1H-pyrazol-4-yl)quinolin-3-amine] | 25.1 to 158 nM |
| 0.0398 to 0.316 nM | Cc1cccc(-c2[nH]cnc2-c2ccc3ncc(C(=O)OCCCN4CCCC4)cc3c2)n1 [Compound 738, 3-pyrrolidin-1-ylpropyl 6-[5-(6-methyl-2-pyridyl)-1H-imidazol-4-yl]quinoline-3-carboxylate] | 25.1 to 158 nM |
| < 0.0316 nM | Cc1cccc(-c2[nH]cnc2-c2ccc3ncc(C4=CCC(NCC(CCO)C(=O)O)CC4)cc3c2)n1 (stereo not drawn) [Compound 150, 4-hydroxy-2-[[[4-[6-[5-(6-methyl-2-pyridyl)-1H-imidazol-4-yl]-3-quinolyl]cyclohex-3-en-1-yl]amino]methyl]butanoic acid] | 200 to 1260 nM |
| 0.0398 to 0.316 nM | Cc1cccc(-c2n[nH]cc2-c2ccc3ncc(N4CC5CNC5C4)cc3n2)n1 (stereo not drawn) [Compound 219, 7-(3,6-diazabicyclo[3.2.0]heptan-3-yl)-2-[3-(6-methyl-2-pyridyl)-1H-pyrazol-4-yl]-1,5-naphthyridine] | 25.1 to 158 nM |
| 0.0398 to 0.316 nM | Cc1cccc(-c2[nH]cnc2-c2ccc3ncc(C4=CCN(C(=O)C5CCCNC5)CC4)cc3c2)n1 (stereo not drawn) [Compound 1150, [4-[6-[5-(6-methyl-2-pyridyl)-1H-imidazol-4-yl]-3-quinolyl]-3,6-dihydro-2H-pyridin-1-yl]-(3-piperidyl)methanone] | 25.1 to 158 nM |
| 0.0398 to 0.316 nM | Cc1cccc(-c2[nH]cnc2-c2ccc3ncc(-c4ccc(C(=O)OC5CCNCC5)s4)cc3c2)n1 [Compound 1010, piperidin-4-yl 5-(6-(5-(6-methylpyridin-2-yl)-1H-imidazol-4-yl)quinolin-3-yl)thiophene-2-carboxylate] | 25.1 to 158 nM |
| 0.0398 to 0.316 nM | Cc1cccc(-c2n[nH]cc2-c2ccc3ncc(N4CCNC[C@H]4C)cc3n2)n1 [Compound 271, 7-[(2R)-2-methylpiperazin-1-yl]-2-[3-(6-methyl-2-pyridyl)-1H-pyrazol-4-yl]-1,5-naphthyridine] | 25.1 to 158 nM |
| 0.0398 to 0.316 nM | Cc1cccc(-c2[nH]cnc2-c2ccc3ncc(NCCN4CCC(C(=O)O)CC4)cc3c2)n1 [Compound 670, 1-[2-[[6-[5-(6-methyl-2-pyridyl)-1H-imidazol-4-yl]-3-quinolyl]amino]ethyl]piperidine-4-carboxylic acid] | 200 to 1260 nM |
| 0.398 to 3.16 nM | Cc1cccc(-c2[nH]cnc2-c2ccc3nccc(C(=O)OC[C@H]4CC[C@@H](N)CC4)c3c2)n1 [Compound 1077, (4-aminocyclohexyl)methyl 6-[5-(6-methyl-2-pyridyl)-1H-imidazol-4-yl]quinoline-4-carboxylate] | 25.1 to 158 nM |
| 3.98 to 31.6 nM | Cc1cccc(-c2[nH]ncc2-c2ccc3nccc(C(=O)OC[C@H]4CCCN4)c3c2)n1 [Compound 1223, [(2R)-pyrrolidin-2-yl]methyl 6-[5-(6-methyl-2-pyridyl)-1H-pyrazol-4-yl]quinoline-4-carboxylate] | 25.1 to 158 nM |
| 0.0398 to 0.316 nM | Cc1cccc(-c2[nH]cnc2-c2ccc3ncc(C(=O)OC[C@H]4CCC[C@H](N)C4)cc3c2)n1 (racemic) [Compound 769, [rac-(1S,3S)-3-aminocyclohexyl]methyl 6-[5-(6-methyl-2-pyridyl)-1H-imidazol-4-yl]quinoline-3-carboxylate] | 25.1 to 158 nM |
| 0.0398 to 0.316 nM | CNCCn1cc(-c2cnc3ccc(-c4c(-c5cccc(C)n5)nc5ccccn45)nc3c2)cn1 [Compound 527, N-methyl-2-(4-(6-(2-(6-methylpyridin-2-yl)imidazo[1,2-a]pyridin-3-yl)-1,5-naphthyridin-3-yl)-1H-pyrazol-1-yl)ethan-1-amine] | 25.1 to 158 nM |
| 0.398 to 3.16 nM | COC(Cc1ccnc2ccc(-c3c[nH]nc3-c3cccc(C)n3)nc12)OC [Compound 860, 8-(2,2-dimethoxyethyl)-2-[3-(6-methyl-2-pyridyl)-1H-pyrazol-4-yl]-1,5-naphthyridine] | 25.1 to 158 nM |
| 0.398 to 3.16 nM | Cc1cccc(-c2n[nH]cc2-c2ccc3ncc(N4C[C@@H]5C[C@H]4CN5)cc3n2)n1 [Compound 220, 7-[(1S,4S)-2,5-diazabicyclo[2.2.1]heptan-2-yl]-2-[3-(6-methyl-2-pyridyl)-1H-pyrazol-4-yl]-1,5-naphthyridine] | 25.1 to 158 nM |
| 0.0398 to 0.316 nM | Cc1cccc(-c2n[nH]cc2-c2ccc3nccc(CNCCCN4CCN(C(C)C)CC4)c3n2)n1 [Compound 819, 3-(4-isopropylpiperazin-1-yl)-N-[[6-[3-(6-methyl-2-pyridyl)-1H-pyrazol-4-yl]-1,5-naphthyridin-4-yl]methyl]propan-1-amine] | 25.1 to 158 nM |
| 0.0398 to 0.316 nM | Cc1cccc(-c2[nH]cnc2-c2ccc3ncc(C4=CC[C@H](NC(=O)[C@@H]5CCCN5)CC4)cc3c2)n1 [Compound 418, (2S)—N-[(1R)-4-[6-[5-(6-methyl-2-pyridyl)-1H-imidazol-4-yl]-3-quinolyl]cyclohex-3-en-1-yl]pyrrolidine-2-carboxamide] | 25.1 to 158 nM |
| 0.0398 to 0.316 nM | Cc1cccc(-c2[nH]cnc2-c2ccc3ncc(-c4ccc5c(c4)CC(N)C5)cc3c2)n1 (stereo not drawn) [Compound 163, 5-[6-[5-(6-methyl-2-pyridyl)-1H-imidazol-4-yl]-3-quinolyl]indan-2-amine] | < 20 nM |
| 0.0398 to 0.316 nM | Cc1cccc(-c2[nH]ncc2-c2ccc3nccc(C(=O)OCC4CCNCC4)c3c2)n1 [Compound 1225, 4-piperidylmethyl 6-[5-(6-methyl-2-pyridyl)-1H-pyrazol-4-yl]quinoline-4-carboxylate] | 25.1 to 158 nM |
| 0.398 to 3.16 nM | CN[C@H]1CC[C@@H](OC(=O)c2cnc3ccc(-c4nc[nH]c4-c4cccc(C)n4)cc3c2)CC1 [Compound 1071, [4-(methylamino)cyclohexyl] 6-[5-(6-methyl-2-pyridyl)-1H-imidazol-4-yl]quinoline-3-carboxylate] | 25.1 to 158 nM |
| 0.0398 to 0.316 nM | Cc1cccc(-c2[nH]cnc2-c2ccc3ncc(-c4ccc(C(=O)O[C@H]5CCN(C)C5)nc4)cc3c2)n1 [Compound 722, [(3S)-1-methylpyrrolidin-3-yl] 5-[6-[5-(6-methyl-2-pyridyl)-1H-imidazol-4-yl]-3-quinolyl]pyridine-2-carboxylate] | < 20 nM |
